Data set [1] has as its target recombinant human 5-HT5A receptor (Homo sapiens, UniProt P47898). Description: [3H]LSD radioligand binding assay. To be noted: [3H]LSD (approximately 1 nM); membranes from HEK-EBNA cells transiently expressing 5-HT5A; Ki by Cheng-Prussoff equation; read-out: Ki. In outline: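 Membranes from HEK-EBNA cells transiently expressing the receptor, with ~1 nM [3H]LSD in 50 mM Tris, 1 mM EGTA, 10 mM MgCl2, 10 μM pargyline, pH 7.4, SPA bead format. Incubated 120 min RT; nonspecific binding defined with 2 μM methiothepin. 10 concentrations in duplicate; IC50 converted to Ki via Cheng-Prusoff.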

The melting point is the temperature of the solid-liquid transition. By Ki is commonly meant a dissociation constant, usually derived from enzyme kinetics or from competition with a known ligand.

Sequence of recombinant human 5-HT5A receptor (P47898 whole entry): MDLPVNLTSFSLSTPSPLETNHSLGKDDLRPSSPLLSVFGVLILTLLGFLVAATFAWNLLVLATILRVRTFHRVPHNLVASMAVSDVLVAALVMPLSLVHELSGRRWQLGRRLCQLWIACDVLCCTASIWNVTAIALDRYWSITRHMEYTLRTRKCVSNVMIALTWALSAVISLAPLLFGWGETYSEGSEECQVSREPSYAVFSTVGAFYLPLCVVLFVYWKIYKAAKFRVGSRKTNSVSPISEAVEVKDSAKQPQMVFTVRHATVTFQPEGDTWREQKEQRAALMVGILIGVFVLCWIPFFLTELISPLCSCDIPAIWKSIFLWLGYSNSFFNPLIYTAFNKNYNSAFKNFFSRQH

`COc1cccc2c1C(NC1=Nc3ccc(Nc4nnc(C)o4)cc3CO1)CO2` (racemic) [Example 107, rac-N^2-(4-Methoxy-2,3-dihydro-benzofuran-3-yl)-N^6-(5-methyl-[1,3,4]oxadiazol-2-yl)-4H-benzo[d][1,3]oxazine-2,6-diamine] returned a melting point of 191 °C. Moreover, the Ki in data set [1] was 10.1 nM.

In turn, `COc1cccc2c1C(NC1=Nc3ccc(Nc4nnc(C5CC5)o4)cc3CO1)CC2` (racemic) [Example 111, rac-N^6-(5-Cyclopropyl-[1,3,4]oxadiazol-2-yl)-N^2-(7-methoxy-indan-1-yl)-4H-benzo[d][1,3]oxazine-2,6-diamine] gave a melting point of 204 °C. The Ki in data set [1] stood at 1.65 nM.

`COc1cccc2c1C(NC1=Nc3ccc(Nc4nnc(C(F)(F)F)o4)cc3CO1)CC2` (racemic) [Example 144, rac-N^2-(7-Methoxy-indan-1-yl)-N^6-(5-trifluoromethyl-[1,3,4]oxadiazol-2-yl)-4H-benzo[d][1,3]oxazine-2,6-diamine] gave a melting point of 173 °C. Moreover, in data set [1], the Ki is 8.44 nM.

On to `COc1cccc2c1C(NC1=Nc3ccc(Nc4nnc(C(F)(F)F)o4)cc3CO1)CO2` (racemic) [Example 145, rac-N^2-(4-Methoxy-2,3-dihydro-benzofuran-3-yl)-N^6-(5-trifluoromethyl-[1,3,4]oxadiazol-2-yl)-4H-benzo[d][1,3]oxazine-2,6-diamine], for which the melting point came out at 212 °C. Moreover, the Ki in data set [1] came to 40.2 nM.

Regarding `Fc1ccc2c(c1)CCC2NC1=Nc2ccc(Nc3nnc(C(F)(F)F)o3)cc2CO1` (racemic) [Example 148, rac-N^2-(5-Fluoro-indan-1-yl)-N^6-(5-trifluoromethyl-[1,3,4]oxadiazol-2-yl)-4H-benzo[d][1,3]oxazine-2,6-diamine], the melting point was 142 °C. In addition, the Ki in data set [1] was found to be 14.1 nM.

As for `Brc1ccc2c(c1)COC(N[C@@H]1CCc3ccccc31)=N2` [Example 32, (6-Bromo-4H-benzo[d][1,3]oxazin-2-yl)-(R)-indan-1-yl-amine], the melting point turned out to be 123 °C. The Ki in data set [1] was 25.2 nM.

In the case of `COc1cccc2c1C(NC1=Nc3ccc(Nc4nnc(C)o4)cc3CO1)CC2` (centres unmarked) [Example 101, N^2-(7-Methoxy-indan-1-yl)-N^6-(5-methyl-[1,3,4]oxadiazol-2-yl)-4H-benzo[d][1,3]oxazine-2,6-diamine], the melting point came to 162 °C. For the same molecule, the inhibition constant Ki in data set [1] was determined as 2.41 nM.

In turn, `Cc1nnc(Nc2ccc3c(c2)COC(N[C@@H]2CCc4ccccc42)=N3)o1` [Example 118, N^2—(R)-Indan-1-yl-N^6-(5-methyl-[1,3,4]oxadiazol-2-yl)-4H-benzo[d][1,3]oxazine-2,6-diamine] registered a melting point of 137 °C. In addition, the Ki in data set [1] came to 1.4 nM.

For `N=C(NO)c1ccc2c(c1)COC(N[C@@H]1CCc3ccccc31)=N2` [Example 130, N-Hydroxy-2-((R)-indan-1-ylamino)-4H-benzo[d][1,3]oxazine-6-carboxamidine], the melting point amounted to 206 °C. The Ki in data set [1] amounted to 11.6 nM.

In turn, `Cc1nc(-c2ccc3c(c2)COC(N[C@@H]2CCc4ccccc42)=N3)no1` [Example 133, (R)-Indan-1-yl-[6-(5-methyl-[1,2,4]oxadiazol-3-yl)-4H-benzo[d][1,3]oxazin-2-yl]-amine] came in with a melting point of 138 °C. Moreover, in data set [1], the inhibition constant Ki turned out to be 75.7 nM.

With `FC(F)(F)c1nnc(Nc2ccc3c(c2)COC(N[C@@H]2CCc4ccccc42)=N3)o1` [Example 138, N^2—(R)-Indan-1-yl-N^6-(5-trifluoromethyl-[1,3,4]oxadiazol-2-yl)-4H-benzo[d][1,3]oxazine-2,6-diamine], the melting point was 155 °C. Besides, in data set [1], the Ki came out at 8.76 nM.

`C(=C\c1ccc2c(c1)COC(N[C@@H]1CCc3ccccc31)=N2)/c1ccccc1` [Example 140, (R)-Indan-1-yl-[6-((E)-styryl)-4H-benzo[d][1,3]oxazin-2-yl]-amine]: the melting point was found to be 162 °C. Also, the inhibitory constant (Ki) in data set [1] is 17.6 nM.

`C(=C\c1ccc2c(c1)COC(N[C@@H]1CCc3ccccc31)=N2)/c1cccnc1` [Example 143, (R)-Indan-1-yl-[6-((E)-2-pyridin-3-yl-vinyl)-4H-benzo[d][1,3]oxazin-2-yl]-amine]: the melting point came out at 132 °C. Besides, the Ki in data set [1] came out at 7.62 nM.

The values are drawn from patent publication US8163740B2, “6-substituted benzoxazines” (Hoffmann-La Roche Inc., priority 2008, dated 2012).
